# Strand notation (5' to 3'): a small letter for the sugar, then the base; units joined by * are phosphorothioate-linked, units joined directly phosphodiester-linked; [ ] holds rarer units or linkages, { } end groups; capitals alone tell only the bases. e = 2'-O-(2-methoxyethyl) (MOE); [5mC] = 5-methylcytosine; d = 2'-deoxy (DNA)
# System: human PKK mRNA
# Assay: Antisense inhibition of human PKK mRNA in HepaRG cells, 5,000 nM (Example 2)
# Format: cell-based
# Conditions: HepaRG cells, electroporation with 5,000 nM antisense oligonucleotide, approximately 24 hours, PKK mRNA by RT-PCR (RTS3454), relative to untreated control cells; Table 5 experiment
# Summary of the method: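 HepaRG cells (20,000/well) electroporated with 5,000 nM MOE gapmer (phosphorothioate backbone, 5-methylcytosines) and harvested after ~24 h. PKK mRNA measured by qRT-PCR with primer probe set RTS3454, normalized to RIBOGREEN total RNA; percent inhibition versus untreated cells.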
row,Substance,% inhibition
1,547299 (antisense eA*eA*eA*e[5mC]*eT*dG*dA*dA*dT*dA*dG*d[5mC]*dA*dA*dA*e[5mC]*eA*e[5mC]*e[5mC]*eT) [compound 547299],76%
2,547300 (antisense eG*eA*eA*e[5mC]*eT*dT*dG*d[5mC]*dT*dG*dG*dA*dA*dG*dA*eA*eA*eA*e[5mC]*eT) [compound 547300],37%
3,547301 (antisense eT*e[5mC]*eA*eT*eT*dG*dA*dT*dT*dG*dA*dA*d[5mC]*dT*dT*eG*e[5mC]*eT*eG*eG) [compound 547301],80%
4,547302 (antisense e[5mC]*e[5mC]*eA*eT*eG*dT*d[5mC]*dA*dT*dT*dG*dA*dT*dT*dG*eA*eA*e[5mC]*eT*eT) [compound 547302],58%
5,547303 (antisense eT*eT*e[5mC]*eT*e[5mC]*d[5mC]*dA*dT*dG*dT*d[5mC]*dA*dT*dT*dG*eA*eT*eT*eG*eA) [compound 547303],72%
6,547304 (antisense e[5mC]*eT*eT*eT*eT*d[5mC]*dT*d[5mC]*d[5mC]*dA*dT*dG*dT*d[5mC]*dA*eT*eT*eG*eA*eT) [compound 547304],71%
7,547305 (antisense eA*e[5mC]*e[5mC]*eA*eA*dA*d[5mC]*d[5mC]*dT*dT*dT*dT*d[5mC]*dT*d[5mC]*e[5mC]*eA*eT*eG*eT) [compound 547305],47%
8,547306 (antisense eA*eG*e[5mC]*eA*eA*d[5mC]*d[5mC]*dA*dA*dA*d[5mC]*d[5mC]*dT*dT*dT*eT*e[5mC]*eT*e[5mC]*e[5mC]) [compound 547306],62%
9,547307 (antisense eG*eA*eA*eG*e[5mC]*dA*dA*d[5mC]*d[5mC]*dA*dA*dA*d[5mC]*d[5mC]*dT*eT*eT*eT*e[5mC]*eT) [compound 547307],58%
10,547308 (antisense eT*e[5mC]*eA*eA*eG*dA*dA*dG*d[5mC]*dA*dA*d[5mC]*d[5mC]*dA*dA*eA*e[5mC]*e[5mC]*eT*eT) [compound 547308],66%
11,547309 (antisense e[5mC]*eT*eT*eT*e[5mC]*dA*dA*dG*dA*dA*dG*d[5mC]*dA*dA*d[5mC]*e[5mC]*eA*eA*eA*e[5mC]) [compound 547309],71%
12,547310 (antisense eA*eT*e[5mC]*eT*eT*dT*d[5mC]*dA*dA*dG*dA*dA*dG*d[5mC]*dA*eA*e[5mC]*e[5mC]*eA*eA) [compound 547310],81%
13,547311 (antisense e[5mC]*eA*e[5mC]*eT*eA*dT*d[5mC]*dT*dT*dT*d[5mC]*dA*dA*dG*dA*eA*eG*e[5mC]*eA*eA) [compound 547311],71%
14,547312 (antisense eA*eT*eG*eT*eA*d[5mC]*dT*dT*dT*dT*dG*dG*d[5mC]*dA*dG*eG*eG*eT*eT*e[5mC]) [compound 547312],46%
15,547313 (antisense eG*eT*eT*e[5mC]*eG*dA*dT*dG*dT*dA*d[5mC]*dT*dT*dT*dT*eG*eG*e[5mC]*eA*eG) [compound 547313],73%

# Same assay, conditions: HepaRG cells, electroporation with 5,000 nM antisense oligonucleotide, approximately 24 hours, PKK mRNA by RT-PCR (RTS3454), relative to untreated control cells; Table 6 experiment
row,Substance,% inhibition
1,547314 (antisense eG*e[5mC]*eA*e[5mC]*e[5mC]*dT*dG*dT*dT*d[5mC]*dG*dA*dT*dG*dT*eA*e[5mC]*eT*eT*eT) [compound 547314],73%
2,547315 (antisense eA*eA*e[5mC]*eT*eG*d[5mC]*dA*d[5mC]*d[5mC]*dT*dG*dT*dT*d[5mC]*dG*eA*eT*eG*eT*eA) [compound 547315],50%
3,547316 (antisense eG*eA*eA*eA*e[5mC]*dT*dG*d[5mC]*dA*d[5mC]*d[5mC]*dT*dG*dT*dT*e[5mC]*eG*eA*eT*eG) [compound 547316],75%
4,547317 (antisense e[5mC]*eA*eG*eA*eA*dA*d[5mC]*dT*dG*d[5mC]*dA*d[5mC]*d[5mC]*dT*dG*eT*eT*e[5mC]*eG*eA) [compound 547317],75%
5,547318 (antisense e[5mC]*e[5mC]*eA*eG*eA*dA*dA*d[5mC]*dT*dG*d[5mC]*dA*d[5mC]*d[5mC]*dT*eG*eT*eT*e[5mC]*eG) [compound 547318],74%
6,547319 (antisense eG*eA*eA*eT*eG*dT*d[5mC]*d[5mC]*dA*dG*dA*dA*dA*d[5mC]*dT*eG*e[5mC]*eA*e[5mC]*e[5mC]) [compound 547319],62%
7,547320 (antisense eA*eG*eG*eA*eA*dT*dG*dT*d[5mC]*d[5mC]*dA*dG*dA*dA*dA*e[5mC]*eT*eG*e[5mC]*eA) [compound 547320],73%
8,547321 (antisense eT*e[5mC]*eA*eA*eG*dG*dA*dA*dT*dG*dT*d[5mC]*d[5mC]*dA*dG*eA*eA*eA*e[5mC]*eT) [compound 547321],53%
9,547322 (antisense e[5mC]*eT*eT*e[5mC]*eA*dA*dG*dG*dA*dA*dT*dG*dT*d[5mC]*d[5mC]*eA*eG*eA*eA*eA) [compound 547322],65%
10,547323 (antisense eT*eT*eG*e[5mC]*eT*dT*d[5mC]*dA*dA*dG*dG*dA*dA*dT*dG*eT*e[5mC]*e[5mC]*eA*eG) [compound 547323],56%
11,547324 (antisense e[5mC]*eA*eT*eT*eG*d[5mC]*dT*dT*d[5mC]*dA*dA*dG*dG*dA*dA*eT*eG*eT*e[5mC]*e[5mC]) [compound 547324],76%
12,547325 (antisense eG*eA*e[5mC]*e[5mC]*eA*d[5mC]*dA*dT*dT*dG*d[5mC]*dT*dT*d[5mC]*dA*eA*eG*eG*eA*eA) [compound 547325],67%
13,547326 (antisense eA*eT*eG*eA*e[5mC]*d[5mC]*dA*d[5mC]*dA*dT*dT*dG*d[5mC]*dT*dT*e[5mC]*eA*eA*eG*eG) [compound 547326],48%
14,547327 (antisense eT*eT*eG*eA*eT*dG*dA*d[5mC]*d[5mC]*dA*d[5mC]*dA*dT*dT*dG*e[5mC]*eT*eT*e[5mC]*eA) [compound 547327],45%
15,547328 (antisense eA*eT*eT*eT*eG*dA*dT*dG*dA*d[5mC]*d[5mC]*dA*d[5mC]*dA*dT*eT*eG*e[5mC]*eT*eT) [compound 547328],40%
16,547329 (antisense eT*eT*eA*eT*eT*dT*dG*dA*dT*dG*dA*d[5mC]*d[5mC]*dA*d[5mC]*eA*eT*eT*eG*e[5mC]) [compound 547329],24%
17,547330 (antisense e[5mC]*eT*eT*eA*eT*dT*dT*dG*dA*dT*dG*dA*d[5mC]*d[5mC]*dA*e[5mC]*eA*eT*eT*eG) [compound 547330],60%
18,547331 (antisense eA*eG*e[5mC]*eA*e[5mC]*dT*dT*dA*dT*dT*dT*dG*dA*dT*dG*eA*e[5mC]*e[5mC]*eA*e[5mC]) [compound 547331],47%
19,547332 (antisense e[5mC]*eG*eA*eT*eG*dG*d[5mC]*dA*dA*dG*d[5mC]*dA*d[5mC]*dT*dT*eA*eT*eT*eT*eG) [compound 547332],44%
20,547333 (antisense eT*eG*eT*e[5mC]*eT*d[5mC]*dG*dA*dT*dG*dG*d[5mC]*dA*dA*dG*e[5mC]*eA*e[5mC]*eT*eT) [compound 547333],76%
21,547334 (antisense eA*eA*eT*eG*eT*d[5mC]*dT*d[5mC]*dG*dA*dT*dG*dG*d[5mC]*dA*eA*eG*e[5mC]*eA*e[5mC]) [compound 547334],74%
22,547336 (antisense eT*eT*eT*eA*eT*dA*dA*dA*dT*dG*dT*d[5mC]*dT*d[5mC]*dG*eA*eT*eG*eG*e[5mC]) [compound 547336],81%
23,547338 (antisense eT*e[5mC]*eA*eA*e[5mC]*dT*d[5mC]*d[5mC]*dT*dT*dT*dA*dT*dA*dA*eA*eT*eG*eT*e[5mC]) [compound 547338],71%
24,547339 (antisense eT*eA*eT*e[5mC]*eA*dA*d[5mC]*dT*d[5mC]*d[5mC]*dT*dT*dT*dA*dT*eA*eA*eA*eT*eG) [compound 547339],42%
25,547342 (antisense eA*eT*eT*eA*eA*dA*dA*dT*dT*dG*dA*d[5mC]*dT*d[5mC]*d[5mC]*eT*e[5mC]*eT*e[5mC]*eA) [compound 547342],66%
26,547343 (antisense e[5mC]*eA*e[5mC]*eA*eT*dT*dA*dA*dA*dA*dT*dT*dG*dA*d[5mC]*eT*e[5mC]*e[5mC]*eT*e[5mC]) [compound 547343],78%
27,547344 (antisense eG*eA*e[5mC]*eA*e[5mC]*dA*dT*dT*dA*dA*dA*dA*dT*dT*dG*eA*e[5mC]*eT*e[5mC]*e[5mC]) [compound 547344],80%
28,547345 (antisense eA*eG*eA*e[5mC]*eA*d[5mC]*dA*dT*dT*dA*dA*dA*dA*dT*dT*eG*eA*e[5mC]*eT*e[5mC]) [compound 547345],80%
29,547346 (antisense eA*e[5mC]*e[5mC]*eT*eT*dA*dG*dA*d[5mC]*dA*d[5mC]*dA*dT*dT*dA*eA*eA*eA*eT*eT) [compound 547346],57%
30,547347 (antisense eA*e[5mC]*eT*eG*e[5mC]*dT*dA*dA*d[5mC]*d[5mC]*dT*dT*dA*dG*dA*e[5mC]*eA*e[5mC]*eA*eT) [compound 547347],82%

# Source: US11840686B2, “Modulation of prekallikrein (PKK) expression” (Ionis Pharmaceuticals, Inc., priority 2013, dated 2023)
